Assay results published in patent US20250084039A1, “4-SUBSTITUTED AMINOISOQUINOLINE DERIVATIVES” (Purdue Research Foundation, priority 2016, published 2025).

How the values were obtained:
[1] = test system: MOLM14; assay: Anti-proliferative effects in leukemia panel; format: cell-based; details: for IC50: Homo sapiens, MOLM-14
Protocol: Molm-14 cells were the kind gift of Dr. Mark Levis from Johns Hopkins University. THP-1, MV4-11, K-562 and MRC-5A cells were purchased from ATCC (ATCC, Manassas, VA). All cell lines were grown in 37° C. with 5% CO2 atmosphere with RPMI 1640 (Life technologies, Carlsbad. CA) supplemented with heat-inactivated 10% (V/V) fetal bovine serum. Cell lines were grown and maintained according to ATCC recommendations.
(§1) Cell lines were seeded into 96-well plates the afternoon prior to treatment. Approximately 18 hours later, compounds were semi-serially diluted in dimethyl sulfoxide (DMSO) and then growth medium, and added to cells. Plates were incubated for 72 hours prior to addition of Alamar Blue (Life Technologies. Carlsbad, CA). Plates were read after 4 additional hours of incubation at 37° C. using a Bio-Tek Synergy HT plate reader (Bio-Tek, Winooski. VT). Data was analyzed and graphed using GraphPad Prism Software (Graphpad. La Jolla, CA).

[2] = biological target: TRKC (Homo sapiens (Human), UniProt Q16288); assay: Reaction Biology HotSpot kinase assay; format: biochemical; details: 500 nM compound, 100 μM radiolabeled ATP
TRKC, sequence (Q16288 32-839): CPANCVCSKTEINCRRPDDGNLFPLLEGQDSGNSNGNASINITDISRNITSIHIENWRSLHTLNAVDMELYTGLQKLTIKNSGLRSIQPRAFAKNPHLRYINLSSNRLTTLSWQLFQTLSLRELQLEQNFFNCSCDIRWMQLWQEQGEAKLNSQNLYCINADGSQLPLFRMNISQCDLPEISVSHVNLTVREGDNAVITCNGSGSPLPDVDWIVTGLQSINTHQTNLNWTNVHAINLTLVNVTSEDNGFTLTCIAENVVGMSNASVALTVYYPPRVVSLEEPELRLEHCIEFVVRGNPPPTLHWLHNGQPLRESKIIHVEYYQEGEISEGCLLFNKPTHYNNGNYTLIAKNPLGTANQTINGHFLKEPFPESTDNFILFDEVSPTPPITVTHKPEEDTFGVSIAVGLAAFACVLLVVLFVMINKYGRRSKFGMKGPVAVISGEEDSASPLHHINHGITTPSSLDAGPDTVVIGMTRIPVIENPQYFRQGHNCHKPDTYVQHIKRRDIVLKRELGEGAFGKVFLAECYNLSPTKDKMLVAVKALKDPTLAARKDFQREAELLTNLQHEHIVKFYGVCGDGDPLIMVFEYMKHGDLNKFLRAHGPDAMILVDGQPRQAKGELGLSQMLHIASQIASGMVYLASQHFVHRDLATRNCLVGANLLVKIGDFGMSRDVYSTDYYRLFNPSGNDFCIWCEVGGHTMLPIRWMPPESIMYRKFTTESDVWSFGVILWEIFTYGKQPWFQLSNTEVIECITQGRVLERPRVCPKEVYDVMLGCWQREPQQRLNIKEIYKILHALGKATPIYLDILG
Protocol: (§2) The Reaction Biology Corporation (www.reactionbiology.com, Malvern, PA) HotSpot assay platform was used to measure kinase/inhibitor interactions exactly as previously described. Kinase and substrate were mixed in a buffer containing 20 mM HEPES pH 7.5, 10 mM MgCl2, 1 mM EGTA, 0.02% Brij35, 0.02 mg/mL BSA, 0.1 mM Na3VO4, 2 mM DTT and 1% DMSO. Single-dose of compounds (500 nM) were then added to each reaction mixture. After 20-minute incubation. ATP (Sigma) and [γ-^33P] ATP (Perkin Elmer) were added at a final total concentration of 100 μM for addition 2 hours at room temperature, followed by spotting onto P81 ion exchange cellulose chromatography paper (Whatman, Inc.). […] Percent remaining kinase activity of a vehicle (DMSO) containing kinase reaction was calculated for each kinase/inhibitor pair using Prism 5 (GraphPad).
as §2, with “1” for “DTT”, “incubation,” for “incubation.”

[3] = biological target: c-kit (Homo sapiens (Human), UniProt P10721); assay: Reaction Biology HotSpot kinase assay; format: biochemical; details: 500 nM compound, 100 μM radiolabeled ATP
c-kit, sequence (P10721 26-976): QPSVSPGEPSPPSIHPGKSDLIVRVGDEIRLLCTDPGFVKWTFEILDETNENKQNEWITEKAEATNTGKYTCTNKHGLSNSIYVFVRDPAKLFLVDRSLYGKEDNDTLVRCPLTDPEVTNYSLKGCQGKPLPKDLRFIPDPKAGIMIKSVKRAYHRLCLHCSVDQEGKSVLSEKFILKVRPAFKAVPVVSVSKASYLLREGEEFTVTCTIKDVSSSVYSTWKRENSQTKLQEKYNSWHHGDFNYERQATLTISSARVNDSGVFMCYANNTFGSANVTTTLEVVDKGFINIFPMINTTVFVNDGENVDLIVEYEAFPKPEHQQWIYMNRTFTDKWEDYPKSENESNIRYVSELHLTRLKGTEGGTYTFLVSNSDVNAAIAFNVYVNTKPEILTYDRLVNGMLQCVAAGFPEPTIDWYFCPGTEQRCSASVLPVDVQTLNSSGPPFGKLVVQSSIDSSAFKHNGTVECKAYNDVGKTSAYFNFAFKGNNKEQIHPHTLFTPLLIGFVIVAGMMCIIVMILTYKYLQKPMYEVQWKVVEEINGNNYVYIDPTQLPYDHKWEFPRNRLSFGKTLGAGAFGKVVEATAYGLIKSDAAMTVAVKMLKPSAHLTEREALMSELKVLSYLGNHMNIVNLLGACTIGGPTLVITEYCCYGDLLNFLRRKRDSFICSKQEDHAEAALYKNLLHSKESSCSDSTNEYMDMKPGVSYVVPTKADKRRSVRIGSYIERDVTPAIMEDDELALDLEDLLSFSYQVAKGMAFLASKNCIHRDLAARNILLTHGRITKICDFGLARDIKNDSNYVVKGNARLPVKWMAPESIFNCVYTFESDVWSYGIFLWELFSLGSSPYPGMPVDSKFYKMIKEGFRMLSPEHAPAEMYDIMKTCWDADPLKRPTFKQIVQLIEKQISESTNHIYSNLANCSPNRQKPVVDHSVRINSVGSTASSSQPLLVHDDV
Protocol: as §2
as §2, with “1” for “DTT”, “incubation,” for “incubation.”

[4] = test system: MV4-11; assay: Activity against AML cell line MV4-11 (CellTiter-Blue, 72 h); format: cell-based
Protocol: Cells were added to 96 well plates at 2000 cells per well for adherent lines and 4000 cells per well for suspension lines and kept in an incubator overnight. The following day the plates were treated with compounds to give rise to the final concentrations of; 100 μM, 10 μM, 5 μM 1 μM, 500 nM, 100 nM, 10 nM, […]. The plates were then stored in the incubator for 72 hours. On the third day the cells were assayed with 20 μL of CellTiter—Blue Cell Viability Assay per well and were incubated for 4 hours. After 4 hours' fluorescence intensity was taken on a plate reader: Excitation: 560/10 Emission: 590/10. IC50 analysis was performed on GraphPad Prism 7.

[5] = test system: MV4-11; assay: Anti-proliferative effects in leukemia panel; format: cell-based; details: for IC50: Homo sapiens, MV4-11
Protocol: Molm-14 cells were the kind gift of Dr. Mark Levis from Johns Hopkins University. […] Cell lines were grown and maintained according to ATCC recommendations.
as §1

[6] = test system: HeLa; assay: Proliferation inhibition at single concentration (CellTiter-Blue); format: cell-based; details: 1 μM compound
Protocol: (§3) Plates were then treated with compound diluted in dimethyl sulfoxide (DMSO) as well as a DMSO control the following day for 72 hours. After this time the plates were then treated with 10 μL of CellTiter-Blue Cell Viability Assay (Promega, Madison, WI) for 4 hours. Then the plates were read on a plate reader (Bio-Tek, Winooski, VT). Data was analyzed on Excel as a percent of the DMSO vehicle.
(§4) Antiproliferative activities against AML cell line, MV4-11 (a FLT3-driven cell line) and three other solid tumors (MCF7, breast, HCT116, colon and HeLa) have been investigated (Tables 6A and 6B and FIG. 10).

[7] = test system: MCF-7; assay: as above; format: cell-based; details: 1 μM compound
Protocol: as §3, §4

[8] = test system: HCT116; assay: as above; format: cell-based; details: 1 μM compound
[9] = test system: MV-4-11; assay: as above; format: cell-based; details: 1 μM compound
[10] = biological target: FLT3 (Homo sapiens (Human), UniProt P36888); assay: Reaction Biology HotSpot kinase assay; format: biochemical; details: 500 nM compound; read-out: % inhibition of FLT3 activity
FLT3, sequence (P36888 27-993): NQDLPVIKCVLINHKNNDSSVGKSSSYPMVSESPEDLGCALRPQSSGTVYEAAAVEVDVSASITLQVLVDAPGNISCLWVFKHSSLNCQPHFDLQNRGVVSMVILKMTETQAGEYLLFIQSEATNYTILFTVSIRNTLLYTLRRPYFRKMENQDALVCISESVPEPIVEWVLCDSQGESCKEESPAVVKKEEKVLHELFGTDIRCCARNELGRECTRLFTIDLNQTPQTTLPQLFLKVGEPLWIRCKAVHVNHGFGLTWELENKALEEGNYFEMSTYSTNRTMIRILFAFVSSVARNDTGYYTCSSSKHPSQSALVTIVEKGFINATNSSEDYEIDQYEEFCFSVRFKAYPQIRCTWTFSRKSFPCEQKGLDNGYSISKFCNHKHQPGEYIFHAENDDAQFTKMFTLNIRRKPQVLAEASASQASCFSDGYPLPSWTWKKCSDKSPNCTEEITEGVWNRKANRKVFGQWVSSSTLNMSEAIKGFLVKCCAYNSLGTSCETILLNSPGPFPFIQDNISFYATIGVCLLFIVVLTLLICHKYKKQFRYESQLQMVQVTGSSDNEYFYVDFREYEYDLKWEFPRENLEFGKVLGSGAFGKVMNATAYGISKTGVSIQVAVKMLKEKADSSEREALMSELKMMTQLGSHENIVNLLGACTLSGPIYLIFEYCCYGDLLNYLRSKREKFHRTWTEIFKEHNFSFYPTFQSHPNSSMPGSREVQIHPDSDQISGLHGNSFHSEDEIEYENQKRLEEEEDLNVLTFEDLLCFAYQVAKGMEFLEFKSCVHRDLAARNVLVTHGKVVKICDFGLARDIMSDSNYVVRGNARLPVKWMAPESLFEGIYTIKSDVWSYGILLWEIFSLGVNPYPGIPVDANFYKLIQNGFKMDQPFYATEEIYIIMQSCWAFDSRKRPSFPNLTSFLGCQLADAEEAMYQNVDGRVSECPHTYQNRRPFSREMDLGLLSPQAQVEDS
Protocol: as §2
as §2, with “1” for “DTT”, “incubation,” for “incubation.”

[11] = test system: MV4-11; assay: IC50 proliferation assay (Alamar Blue, 72 h); format: cell-based; details: Homo sapiens, MV4-11, 72 h; read-out: IC50 (proliferation inhibition) Cell line - MV4-11
Protocol: as §1, with “IC50 proliferation assay—Cell” for “Cell”, “lines and primary cells” for “lines”, “Technologies,” for “Technologies.”, “Winooski,” for “Winooski.”, “(Graphpad,” for “(Graphpad.”, “Jolla.” for “Jolla,”
IC50 (proliferation inhibition) against leukemia cell lines MV4-11 and K562. […] MiaPaca-2 (Pancreatic cell line), HLY-1 (Lymphoma cell line), MV4-11 (AML, cell line) and K562 (CML cell line).

[12] = Homo sapiens, MV4-11, 72 h, read-out: IC50 against MV4-11/uM
[13] = read-out: Anti-proliferative effects in leukemia panel (μM) MV4-11
[14] = 72 h, read-out: IC50 against MV4-11/uM
[15] = FIG. 1, read-out: anticancer activities (IC50) against MV4-11

Molecule	IC50 [1] [µM]	inhibition at 0.5 µM [2] [%]	inhibition at 0.5 µM [3] [%]	IC50 [5, 13] [µM]	Percent inhibition of proliferation HeLa [6] [%]	Percent inhibition of proliferation MCF-7 [7] [%]	Percent inhibition of proliferation HCT116 [8] [%]	IC50 [4, 14] [µM]	Percent inhibition of proliferation MV-4-11 [9] [%]	further results
Nc1ncc2ccc(Cl)cc2c1C#Cc1ccc(C2=NCCN2CCN2CCCCC2)cc1 [HSM1721]	0.3	52	80	0.08 ± 0.02	–	–	–	–	–	IC50 [4, 12]: 0.015 µM
CC1(C)CNC(c2ccc(C#Cc3c(N)ncc4ccc(Cl)cc34)cc2)=N1 [HSM1743]	0.3	44	78	0.07 ± 0.02	–	–	–	–	–	–
Nc1ncc2ccc(Cl)cc2c1C#Cc1ccc(C2=NC(C3CC3)CN2)cc1 (stereo not drawn) [HSM1703]	0.1	49	60	0.3 ± 0.2	–	–	–	–	–	–
N=C(NO)c1cccc(C#Cc2c(N)ncc3ccc(Cl)cc23)c1 [HSM1819]	0.06	80	82	0.02 ± 0.01	–	–	–	–	–	anti-proliferative activity in words, MV4-11 / AML cell lines [5]: very potent
Nc1nccc(Cl)c1C#Cc1ccc(C2=NCCN2)cc1 [HSM1798]	> 5	11	15	> 5	–	–	–	–	–	anti-proliferative activity in words, MV4-11 / AML cell lines [5]: ineffective
N#Cc1ccc(C#Cc2c(N)ncc3ccc(Cl)cc23)cc1 [HSM1611, 4-((3-amino-6-chloroisoquinolin-4-yl)ethynyl)benzonitrile]	> 5	16	63	> 5	–	–	–	–	–	anti-proliferative activity in words, MOLM-14 [1]: ineffective; IC50 [4, 12]: 0.84 µM; anti-proliferative activity in words, MV4-11 / AML cell lines [5]: ineffective
Nc1ncc2ccc(Cl)cc2c1C#Cc1ccc(C(=O)NCCCN2CCCCC2)cc1 [HSM1683]	–	–	–	–	49	57	10	0.003	95	IC50 ([4]; Table 2, read-out: IC50 (nM) against MV4-11 (AML cell line)): 0.0421 ± 0.0013 µM
CC1(COc2ccc3c(c2)ncn3-c2ccc3cccc(N4CCC(N)CC4)c3n2)COC1 [Crenolanib, reference compound]	0.004	–	–	0.005 ± 0.001	–	–	–	–	–	inhibition at 0.5 µM [10]: 99%; IC50 ([5]; read-out: anti-proliferative IC50): 0.005 µM
CN(C)CCNC(=O)c1ccc(C#Cc2c(N)ncc3ccc(Cl)cc23)cc1 [HSM1669]	–	–	–	–	20	98	46	0.26	83	IC50 [4, 15]: 0.26 µM
Nc1ncc2ccc(Cl)cc2c1C#Cc1ccccc1C(=O)NCCCN1CCCCC1 [HSM1717]	–	–	–	–	2	76	33	0.05	82	–
CN1CCN(Cc2ccc(NC(=O)c3ccc(C#Cc4c(N)ncc5ccc(Cl)cc45)cc3)cc2)CC1 [HSM1661]	–	–	–	–	1	96	0	0.016	90	–
Nc1ncc2ccc(Cl)cc2c1C#Cc1ccc(C(=O)N2CCC(N3CCCCC3)CC2)cc1 [HSN135]	–	–	–	–	0	35	21	0.033	100	–
CN(CCCN1CCCCC1)C(=O)c1ccc(C#Cc2c(N)ncc3ccc(Cl)cc23)cc1 [HSN105]	–	–	–	–	1	12	40	0.061	88	–
C(#Cc1cncc2ccccc12)c1ccc(C2=NCCN2)cc1 [HSM1813]	> 5	17	39	> 5	–	–	–	–	–	anti-proliferative activity in words, MV4-11 / AML cell lines [5]: not a potent inhibitor
Nc1nnc2ccccc2c1C#Cc1ccc(C2=NCCN2)cc1 [HSM1796]	> 5	7	3	> 5	–	–	–	–	–	anti-proliferative activity in words, MV4-11 / AML cell lines [5]: ineffective
CN(C)CCCNC(=O)c1cccc(C#Cc2c(N)ncc3ccc(Cl)cc23)c1 [HSM1688]	–	–	–	–	64	33	43	0.25	74	IC50 [4, 15]: 0.25 µM
(E)-4-(2-(3-amino-6-chloroisoquinolin-4-yl)vinyl)-N-hydroxybenzimidamide [HSM1859]	–	–	–	–	–	–	–	–	–	% inhibition of TrkC [2]: 42%; % inhibition of c-Kit [3]: 62%
Nc1ncc(C#Cc2ccc(C3=NCCN3)cc2)c2ccccc12 [HSM1795, 4-((4-(4,5-dihydro-1H-imidazol-2-yl)phenyl)ethynyl)isoquinolin-1-amine]	–	–	–	–	–	–	–	–	–	IC50 [11]: 100 nM
CC(C)(C)c1cc(NC(=O)Nc2ccc(-c3cn4c(n3)sc3cc(OCCN5CCOCC5)ccc34)cc2)no1 [Quizartinib, quizartinib, reference compound]	0.001 ± 0.001	–	–	0.001 ± 0.001	–	–	–	–	–	–
N=C(NO)c1ccc(C#Cc2c(N)ncc3ccc(Cl)cc23)cc1 [HSM1820]	0.05	74	86	0.04 ± 0.01	–	–	–	–	–	–
Nc1ncc2[nH]ccc2c1C#Cc1ccc(C2=NCCN2)cc1 [HSM1781]	> 5	–	–	> 5	–	–	–	–	–	anti-proliferative activity in words, MV4-11 / AML cell lines [5]: ineffective
Nc1ncc2ccc(Cl)cc2c1C#Cc1ccc(C(=O)NCCN2CCCCC2)cc1 [HSN137]	–	–	–	–	20	74	60	0.006	99	–
